Results published in publication PMC10641811 (Journal of Medicinal Chemistry, 2023).

Key:
[1] = system: diacylglycerol kinase α (DGKα); conditions: at 5 μM; cited from earlier work
δ-isozyme of DGK = conditions: at 5 μM; cited from earlier work
κ-isozyme of DGK = conditions: at 5 μM; cited from earlier work
ι-isozyme of DGK = conditions: at 5 μM; cited from earlier work
[2] = type: physicochemical; conditions: for discoloration of solutions prepared for NMR: DMSO-d6 or CDCl3, ambient temperature; for discoloration when dissolved in DMSO: 5 days at ambient temperature
ABCC2 = conditions: read-out: IC50 in at least one assay; cited from earlier work
MSN/CD44 = MSN/CD44 (Homo sapiens, UniProt P26038); type: binding; conditions: for activity in MSN/CD44 TR-FRET assay: in words
IspF domain = conditions: cited from earlier work
H. pylori = conditions: cited from earlier work
Shank3 PDZ domain = conditions: read-out: Shank3 IC50; cited from earlier work
NS5 = conditions: read-out: NS5 Ki; cited from earlier work
cell cycle progression = conditions: at ≥30 μM; cited from earlier work
EZH2-EED interaction = conditions: cited from earlier work
WT PRC2-EZH2 = conditions: cited from earlier work

Sequence of MSN/CD44 (P26038 2-295): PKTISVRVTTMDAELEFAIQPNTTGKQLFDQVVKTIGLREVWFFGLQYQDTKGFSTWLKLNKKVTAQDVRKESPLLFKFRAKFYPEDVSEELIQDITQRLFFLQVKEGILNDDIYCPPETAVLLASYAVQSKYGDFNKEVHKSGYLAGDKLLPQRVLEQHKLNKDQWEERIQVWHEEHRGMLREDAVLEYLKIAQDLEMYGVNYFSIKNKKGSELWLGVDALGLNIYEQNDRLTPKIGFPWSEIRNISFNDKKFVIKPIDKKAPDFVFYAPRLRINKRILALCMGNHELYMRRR

CC(=O)c1ccc2c(c1)C1C=CCC1C(C(=O)O)N2 (centres unmarked) [CU-4]
inhibition of α-isozyme of DGK [1]: strongly inhibit
inhibition of δ-isozyme of DGK (δ-isozyme of DGK): strongly inhibit
inhibition of κ-isozyme of DGK (κ-isozyme of DGK): strongly inhibit
inhibition of ι-isozyme of DGK (ι-isozyme of DGK): strongly inhibit

CCOC(=O)c1ccc2c(c1)C1C=CCC1C(C(=O)OCC)N2 (centres unmarked) [Compound 1, Diethyl 3a,4,5,9b-tetrahydro-3H-cyclopenta[c]quinoline-4,8-dicarboxylate]
1H NMR analysis of samples kept in CDCl3 ([2]; CDCl3, 120 h in light): no significant changes in the spectra
stability in solution kept in the dark ([2]; DMSO-d6, dark, 72 h, 5 mg): remained a clear solution
stability in solution kept in the light ([2]; DMSO-d6, light, 72 h, 25 mg and 5 mg): decomposed and changed color (purple)
discoloration of solutions prepared for NMR ([2]; 72 h): Discoloration

O=C(O)C1Nc2c(F)cccc2C2C=CCC12 (centres unmarked) [Compound 1e]
IC50 (ABCC2): < 30 µM

CCOC(=O)c1ccc2c(c1)C1CCCC1C(C(=O)OCC)N2 (centres unmarked) [Compound 2]
activity in MSN/CD44 TR-FRET assay (MSN/CD44): inactive
discoloration when dissolved in DMSO [2]: No discoloration

O=C(O)c1ccc2c(c1)C1CCCC1C(C(=O)O)N2 (centres unmarked) [Compound 3]
activity in MSN/CD44 TR-FRET assay (MSN/CD44): inactive
discoloration when dissolved in DMSO [2]: No discoloration

O=C(O)C1Nc2ccc(Oc3ccccc3)cc2C2C=CCC12 (centres unmarked) [Compound 27]
inhibitory effect in IspF domain assay (IspF domain): did not show an inhibitory effect
inhibition of H. pylori growth (H. pylori): only a weak inhibitor

O=C(O)[C@@H]1Nc2c(O)cc(Cl)c([N+](=O)[O-])c2[C@@H]2C=CC[C@H]12 [Compound 34]
IC50 (Shank3 PDZ domain): < 250 µM

O=C(O)C1Nc2c(I)cccc2C2C=CCC12 (centres unmarked) [Compound 5660163]
Ki (NS5): < 10 µM

O=C(O)c1ccc2c(c1)C1C=CCC1C(C(=O)O)N2 (centres unmarked) [Compound 5661118]
Hill coefficient (MSN/CD44; MSN/CD44 TR-FRET dose–response curve): 3.4
discoloration of solution prepared for biological evaluation ([2]; DMSO (10 mM)): same discoloration
discoloration of solutions prepared for NMR ([2]; 72 h): Discoloration
cell cycle arrest (cell cycle progression): failed to elicit cell cycle arrest

O=C(O)c1cc(-c2ccccn2)c2c(c1)C1C=CCC1C(C(=O)O)N2 (centres unmarked) [WNN2074-A009]
inhibition of the EZH2-EED interaction (EZH2-EED interaction): weak
inhibition of WT PRC2-EZH2 (WT PRC2-EZH2): inhibited
